Patent US20120301457A1 (priority 2010, published 2012)

Target: recombinant mouse PrP (Mus musculus, UniProt P04925)
Type: biochemical

Row | Molecule | ability to facilitate amplification and propagation of PrP^Sc
1 | CCCCCCCCCCCCCCCC(=O)OC[C@H](COP(=O)(O)OCCN)OC(=O)CCCCCCCCCCCNc1ccc([N+](=O)[O-])c2nonc12 [16:0-12:0 NBD PE, 1-palmitoyl-2-{12-[(7-nitro-2-1,3-benzoxadiazol-4-yl)amino]lauroyl}-sn-glycero-3-phosphoethanolamine] | successfully facilitated propagation
2 | CCCCCCCC/C=C\CCCCCCCC(=O)O[C@H](COC(=O)CCCCCCCCCCCCCCC)COP(=O)(O)OCCN [16:0-18:1 PE, 1-palmitoyl-2-oleoyl-sn-glycero-3-phosphoethanolamine] | successfully facilitated propagation
3 | CCCCCCCC/C=C\CCCCCCCC(=O)O[C@H](CO/C=C\CCCCCCCCCCCCCCCC)COP(=O)(O)OCCN [C18(Plasm)-18:1 PE, 1-(1Z-octadecenyl)-2-oleoyl-sn-glycero-3-phosphoethanolamine] | successfully facilitated propagation
4 | CCCCC/C=C\C/C=C\C/C=C\C/C=C\CCCC(=O)O[C@H](CO/C=C\CCCCCCCCCCCCCCCC)COP(=O)(O)OCCN [C18(Plasm)-20:4 PE, 1-(1Z-octadecenyl)-2-arachidonoyl-sn-glycero-3-phosphoethanolamine] | successfully facilitated propagation
5 | cerebrosides | facilitate prion amplification to a lesser extent
6 | phosphatidic acid | facilitate prion amplification to a lesser extent
7 | phosphatidylcholine | facilitate prion amplification to a lesser extent
8 | phosphatidylglycerol | facilitate prion amplification to a lesser extent
9 | phosphatidylinositol | facilitate prion amplification to a lesser extent
10 | phosphatidylserine | facilitate prion amplification to a lesser extent
11 | sulfatides | facilitate prion amplification to a lesser extent
